Columns and labels:
HepaRG cells [1] = experiment: WST-1 cytotoxicity assay; assay type: cell-based, human; conditions: WST-1 assay, 72 h incubation
Procedure: Wild-type human hepatoma HepaRG cells obtained from Biopredic International (Saint Grégoire, France) were cultivated for 4 weeks in a Binder cell culture incubator maintained at 37 °C in a 5% humidified atmosphere with 5% CO2 before they were employed in this study. The 4 weeks consisted of 2 weeks of proliferation and 2 weeks of differentiation. […]
Cytotoxicity assays were performed in 96-well plates at a density of 9000 cells per well, and test compounds were incubated for 72 h. […] After the 30-min incubation with WST-1, absorbance was measured at 450 nm corrected by a reference at 620 nm (λexc = 450 nm/λemi = 620 nm) using an Infinite M200 PRO plate reader (Tecan; Männedorf, Switzerland). […] The absorbed dye was quantified by fluorescence measurement (λexc = 530 nm/λemi = 645 nm) on an Infinite M200 PRO plate reader (Tecan; Männedorf, Switzerland). Background corrected viability values of both assays were expressed as a percentage of untreated cells. […] Means and standard deviations for each treatment were calculated. […]

HepaRG cells [2] = experiment: Total RNA sequencing, differential gene expression
[3] = high sub-cytotoxic concentration, 24 h, vs solvent control
[4] = low sub-cytotoxic concentration, 24 h, vs solvent control

SMILES: C#CCOc1ccc(CCNC(=O)C(OCC#C)c2ccc(Cl)cc2)cc1OC (stereo not shown) [MDP, mandipropamid]
- EC50 for cytotoxicity (HepaRG cells [1]): 245 µg/mL
- Fold change ACOX1 (HepaRG cells [2]; gene ACOX1, MDP_HIGH): 0.9326
- log2FoldChange ACOX1 (HepaRG cells [2]; gene ACOX1, MDP_HIGH): -0.1007
- Fold change AHR (HepaRG cells [2]; gene AHR, MDP_HIGH): 1.696
- log2FoldChange AHR (HepaRG cells [2]; gene AHR, MDP_HIGH): 0.7618
- Fold change CD36 (HepaRG cells [2]; gene CD36, MDP_HIGH): 1.4443
- log2FoldChange CD36 (HepaRG cells [2]; gene CD36, MDP_HIGH): 0.5304
- Fold change CYP1A1 (HepaRG cells [2]; gene CYP1A1, MDP_HIGH): 10.9554
- log2FoldChange CYP1A1 (HepaRG cells [2]; gene CYP1A1, MDP_HIGH): 3.454
- Fold change CYP1A2 (HepaRG cells [2]; gene CYP1A2, MDP_HIGH): 0.4656
- log2FoldChange CYP1A2 (HepaRG cells [2]; gene CYP1A2, MDP_HIGH): -1.103
- Fold change CYP2B6 (HepaRG cells [2]; gene CYP2B6, MDP_HIGH): 1.009
- log2FoldChange CYP2B6 (HepaRG cells [2]; gene CYP2B6, MDP_HIGH): 0.01275
- Fold change CYP2C9 (HepaRG cells [2]; gene CYP2C9, MDP_HIGH): 0.1687
- log2FoldChange CYP2C9 (HepaRG cells [2]; gene CYP2C9, MDP_HIGH): -2.568
- Fold change CYP2C19 (HepaRG cells [2]; gene CYP2C19, MDP_HIGH): 0.1531
- log2FoldChange CYP2C19 (HepaRG cells [2]; gene CYP2C19, MDP_HIGH): -2.707
- Fold change CYP2D6 (HepaRG cells [2]; gene CYP2D6, MDP_HIGH): 0.9227
- log2FoldChange CYP2D6 (HepaRG cells [2]; gene CYP2D6, MDP_HIGH): -0.116
- Fold change CYP3A4 (HepaRG cells [2]; gene CYP3A4, MDP_HIGH): 0.7016
- log2FoldChange CYP3A4 (HepaRG cells [2]; gene CYP3A4, MDP_HIGH): -0.5112
- Fold change FASN (HepaRG cells [2]; gene FASN, MDP_HIGH): 1.131
- log2FoldChange FASN (HepaRG cells [2]; gene FASN, MDP_HIGH): 0.178
- Fold change INSIG1 (HepaRG cells [2]; gene INSIG1, MDP_HIGH): 1.034
- log2FoldChange INSIG1 (HepaRG cells [2]; gene INSIG1, MDP_HIGH): 0.04872
- Fold change MLXIPL (HepaRG cells [2]; gene MLXIPL, MDP_HIGH): 0.6622
- log2FoldChange MLXIPL (HepaRG cells [2]; gene MLXIPL, MDP_HIGH): -0.5947
- Fold change NR1H2 (HepaRG cells [2]; gene NR1H2, MDP_HIGH): 1.431
- log2FoldChange NR1H2 (HepaRG cells [2]; gene NR1H2, MDP_HIGH): 0.5168
- Fold change NR1H4 (HepaRG cells [2]; gene NR1H4, MDP_HIGH): 0.8415
- log2FoldChange NR1H4 (HepaRG cells [2]; gene NR1H4, MDP_HIGH): -0.249
- Fold change NR1I2 (HepaRG cells [2]; gene NR1I2, MDP_HIGH): 0.5918
- log2FoldChange NR1I2 (HepaRG cells [2]; gene NR1I2, MDP_HIGH): -0.7568
- Fold change NR1I3 (HepaRG cells [2]; gene NR1I3, MDP_HIGH): 0.06449
- log2FoldChange NR1I3 (HepaRG cells [2]; gene NR1I3, MDP_HIGH): -3.955
- Fold change NR3C1 (HepaRG cells [2]; gene NR3C1, MDP_HIGH): 1.123
- log2FoldChange NR3C1 (HepaRG cells [2]; gene NR3C1, MDP_HIGH): 0.1669
- Fold change PPARA (HepaRG cells [2]; gene PPARA, MDP_HIGH): 0.7275
- log2FoldChange PPARA (HepaRG cells [2]; gene PPARA, MDP_HIGH): -0.4589
- Fold change PPARG (HepaRG cells [2]; gene PPARG, MDP_HIGH): 4.604
- log2FoldChange PPARG (HepaRG cells [2]; gene PPARG, MDP_HIGH): 2.203
- Fold change RARA (HepaRG cells [2]; gene RARA, MDP_HIGH): 1.153
- log2FoldChange RARA (HepaRG cells [2]; gene RARA, MDP_HIGH): 0.2052
- Fold change RARB (HepaRG cells [2]; gene RARB, MDP_HIGH): 2.749
- log2FoldChange RARB (HepaRG cells [2]; gene RARB, MDP_HIGH): 1.459
- Fold change RARG (HepaRG cells [2]; gene RARG, MDP_HIGH): 1.386
- log2FoldChange RARG (HepaRG cells [2]; gene RARG, MDP_HIGH): 0.4711
- Fold change SCD (HepaRG cells [2]; gene SCD, MDP_HIGH): 0.8254
- log2FoldChange SCD (HepaRG cells [2]; gene SCD, MDP_HIGH): -0.2768
- Fold change SREBF1 (HepaRG cells [2]; gene SREBF1, MDP_HIGH): 0.451
- log2FoldChange SREBF1 (HepaRG cells [2]; gene SREBF1, MDP_HIGH): -1.149
- CYP1A1 Fold change (HepaRG cells [2]; [3]): ≈ 11
- NR1I3 Fold change (HepaRG cells [2]; [3]): ≈ 0.06
- SREBF1 Fold change (HepaRG cells [2]; [3]): ≈ 0.45
- ACOX1 Fold change (HepaRG cells [2]; [4]): 1.035
- ACOX1 log2FoldChange (HepaRG cells [2]; [4]): 0.04967
- AHR Fold change (HepaRG cells [2]; [4]): 1.296
- AHR log2FoldChange (HepaRG cells [2]; [4]): 0.3736
- CD36 Fold change (HepaRG cells [2]; [4]): 1.929
- CD36 log2FoldChange (HepaRG cells [2]; [4]): 0.9479
- CYP1A1 Fold change (HepaRG cells [2]; [4]): 5.261
- CYP1A1 log2FoldChange (HepaRG cells [2]; [4]): 2.395
- CYP1A2 Fold change (HepaRG cells [2]; [4]): 0.6714
- CYP1A2 log2FoldChange (HepaRG cells [2]; [4]): -0.5747
- CYP2B6 Fold change (HepaRG cells [2]; [4]): 1.3371
- CYP2B6 log2FoldChange (HepaRG cells [2]; [4]): 0.4191
- CYP2C9 Fold change (HepaRG cells [2]; [4]): 0.329
- CYP2C9 log2FoldChange (HepaRG cells [2]; [4]): -1.6038
- CYP2C19 Fold change (HepaRG cells [2]; [4]): 0.4073
- CYP2C19 log2FoldChange (HepaRG cells [2]; [4]): -1.2958
- CYP2D6 Fold change (HepaRG cells [2]; [4]): 0.5576
- CYP2D6 log2FoldChange (HepaRG cells [2]; [4]): -0.8427
- CYP3A4 log2FoldChange (HepaRG cells [2]; [4]): 1.049
- FASN Fold change (HepaRG cells [2]; [4]): 1.765
- FASN log2FoldChange (HepaRG cells [2]; [4]): 0.8201
- INSIG1 Fold change (HepaRG cells [2]; [4]): 1.785
- INSIG1 log2FoldChange (HepaRG cells [2]; [4]): 0.8359
- MLXIPL Fold change (HepaRG cells [2]; [4]): 0.9069
- MLXIPL log2FoldChange (HepaRG cells [2]; [4]): -0.1409
- NR1H2 Fold change (HepaRG cells [2]; [4]): 1.22
- NR1H2 log2FoldChange (HepaRG cells [2]; [4]): 0.2868
- NR1H4 Fold change (HepaRG cells [2]; [4]): 1.127
- NR1H4 log2FoldChange (HepaRG cells [2]; [4]): 0.1725
- NR1I2 Fold change (HepaRG cells [2]; [4]): 0.6165
- NR1I2 log2FoldChange (HepaRG cells [2]; [4]): -0.6979
- NR1I3 Fold change (HepaRG cells [2]; [4]): 0.09752
- NR1I3 log2FoldChange (HepaRG cells [2]; [4]): -3.358
- NR3C1 Fold change (HepaRG cells [2]; [4]): 1.06
- NR3C1 log2FoldChange (HepaRG cells [2]; [4]): 0.08356
- PPARA Fold change (HepaRG cells [2]; [4]): 0.907
- PPARA log2FoldChange (HepaRG cells [2]; [4]): -0.1409
- PPARG Fold change (HepaRG cells [2]; [4]): 2.875
- PPARG log2FoldChange (HepaRG cells [2]; [4]): 1.5234
- RARA Fold change (HepaRG cells [2]; [4]): 1.12
- RARA log2FoldChange (HepaRG cells [2]; [4]): 0.164
- RARB Fold change (HepaRG cells [2]; [4]): 3.072
- RARB log2FoldChange (HepaRG cells [2]; [4]): 1.619
- RARG Fold change (HepaRG cells [2]; [4]): 1.553
- RARG log2FoldChange (HepaRG cells [2]; [4]): 0.6348
- SCD Fold change (HepaRG cells [2]; [4]): 1.519
- SCD log2FoldChange (HepaRG cells [2]; [4]): 0.6028
- SREBF1 Fold change (HepaRG cells [2]; [4]): 0.7245
- SREBF1 log2FoldChange (HepaRG cells [2]; [4]): -0.4649
